From article PMC7660650, “Chemical Starting Matter for HNF4α Ligand Discovery and Chemogenomics” (International Journal of Molecular Sciences, 2020)
Several values for one entry are separate records, joined by “and”; a condition that tells them apart may be missing. Identical values can stand only once. Entries after “also recorded” stand apart in the source; their conditions may differ.

B1: recombinant HNF4α LBD protein (hepatocyte nuclear factor 4α ligand-binding domain, aa. 148–377) (domain or fragment, human, UniProt P41235-1 148-377, looked up)
chain: SLPSINALLQAEVLSRQITSPVSGINGDIRAKKIASIADVCESMKEQLLVLVEWAKYIPAFCELPLDDQVALLRAHAGEHLLLGATKRSMVFKDVLLLGNDYIVPRHCPELAEMSRVSIRILDELVLPFQELQIDDNEYAYLKAIIFFDPDAKGLSDPGKIKRLRSQVQVSLEDYINDRQYDSRGRFGELLLLLPTLQSITWQMIEQIQFIKLFGMAKIDNLLQEMLLGG
notes: 148-377, subcloned into pNIC28-Bsa4; UniProt entry and species are printed for the Gal4-HNF4α reporter construct, not expressly for the E. coli construct; also called NR2A1

Tests used:
Gal4–VP16 = experiment: Gal4-VP16 control experiment (reporter gene assay, HEK293T cells); format: cell-based; settings: 50 µM; mean ± SD
Experimental: The frame and sequence of the fusion plasmid were verified by sequencing. pFR-Luc (Stratagene) was used as reporter plasmid and pRL-SV40 (Promega, Madison, WI, USA) served for normalization of transfection efficiency and cell growth. The Gal4-VP16 [25] expressed from plasmid pECE-SV40-Gal4-VP16 [26] […] Assay Procedure: HEK293T cells were grown in Dulbecco’s Modified Eagle Medium (DMEM) high glucose, supplemented with 10% Fetal Bovine Serum (FCS), sodium pyruvate (1 mM), penicillin (100 U/mL), and streptomycin (100 μg/mL) at 37 °C and 5% CO2. The day before transfection, HEK293T cells were seeded in 96-well plates (3.0·10^4 cells/well). Before transfection, the medium was changed to Opti-MEM without supplements. Transient transfection was carried out using Lipofectamine LTX reagent (Invitrogen, Carlsbad, CA, USA) according to the manufacturer’s protocol with pFR-Luc (Stratagene), pRL-SV40 (Promega), and the pFA-CMV-hHNF4α-LBD clone or pECE-SV40-Gal4-VP16 for control experiments. Five hours after transfection, the medium was changed to Opti-MEM supplemented with penicillin (100 U/mL), streptomycin (100 μg/mL), now additionally containing 0.1% DMSO (0.2% in the primary screen) and the respective test compounds or 0.1% DMSO (0.2% in the primary screen) alone as the untreated control. In the primary screening, the core set of the Prestwick Drug Fragment Library (Prestwick Chemical, Illkirch, France) was tested at 50 µM concentration in two biologically independent repeats. In the follow-up and dose-response profiling, each concentration was tested in duplicates in at least three biologically independent repeats. Following overnight (12−14 h) incubation with the test compounds, cells were assayed for luciferase activity using Dual-Glo™ luciferase assay system (Promega) according to the manufacturer’s protocol. Luminescence was measured with a Tecan Spark 10M luminometer (Tecan Group Ltd., Männedorf, Switzerland). […] Fold activation was obtained by dividing the mean RLU of test compounds at a respective concentration by the mean RLU of untreated control.

[1] = target: T1, recombinant HNF4α LBD protein (Homo sapiens, UniProt P41235); experiment: Isothermal titration calorimetry (ITC); format: binding; settings: for Kd: 25 °C, protein 10–20 µM titrated with ligand 50–200 µM, read-out: HNF4α LBD Binding (Kd); for n (ITC binding model): Figure 4
T1 construct: The LDB domain of HNF4α (aa. 148–377) subcloned into pNIC28-Bsa4; His6 (N); made in house; host or cells: E. coli Rosetta
T1 sequence (P41235 148-377): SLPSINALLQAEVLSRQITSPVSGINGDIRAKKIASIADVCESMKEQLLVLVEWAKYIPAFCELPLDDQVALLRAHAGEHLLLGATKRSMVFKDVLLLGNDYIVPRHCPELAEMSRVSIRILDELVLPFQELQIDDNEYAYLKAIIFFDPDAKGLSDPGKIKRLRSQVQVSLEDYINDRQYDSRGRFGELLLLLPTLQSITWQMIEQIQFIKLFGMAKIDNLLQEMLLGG
Experimental: The recombinant protein harboring an N-terminal His6 tag was initially purified by Ni^2+-affinity chromatography. Size exclusion chromatography was performed using Superdex S75 column (GE Healthcare, Chicago, IL, USA.), and the pure protein was stored in a buffer containing 20 mM 4-(2-hydroxyethyl)-1-piperazineethanesulfonic acid (HEPES) pH 7.5, 200 mM NaCl, 0.5 mM tris(2-carboxyethyl)phosphine (TCEP), and 5% w/v glycerol.
Isothermal titration calorimetry was performed on an Affinity ITC (TA Instruments, New Castle, DE, USA). The instrument was equilibrated to 25 °C and the stirring rate was set to 75 rpm. HNF4α buffer (20 mM HEPES pH 7.5, 200 mM NaCl, 0.5 mM TCEP, 5% w/v glycerol) with up to 1% DMSO (final concentration) was used for ITC. The recombinant HNF4α LBD protein (10–20 µM, 172 µL) was titrated with fragments (4, 6, 7, 9, 10; 50–200 µM; dissolved in the same buffer). A total of 20-30 injections with a volume of 2.5–4 µL and with an interval of 200–300 s were performed. As a control experiment, HNF4α protein was titrated with buffer, and the buffer was titrated with test compound to detect dissolution artifacts with otherwise identical experimental parameters. Data analysis was performed with NanoAnalyze^TM Software (TA Instruments, New Castle, DE, USA.) using an independent binding model.

[2] = test system: HNF4α-regulated gene fructose-1,6-bisphosphatase 1 (FBP1); experiment: FBP1 mRNA expression in HepG2 cells by qRT-PCR; format: cell-based, human; settings: HepG2, 50 µM, 8 h, vs 0.1% DMSO
[3] = target: T2, Gal4-HNF4α (human HNF4α LBD) (Homo sapiens, UniProt P41235); experiment: Hybrid Gal4-HNF4α reporter gene assay in transiently transfected HEK293T cells; format: cell-based; settings: for HNF4α Ligand Type: Gal4-HNF4α assay; for HNF4α vs. VP16 (p, t-test): significance of Gal4-HNF4α follow-up vs Gal4-VP16 control at the same concentration
T2 construct: uniprot entry: P41235-1, residues 142-377; expressed in transfected cells; host or cells: HEK293T
T2 sequence (P41235 142-377): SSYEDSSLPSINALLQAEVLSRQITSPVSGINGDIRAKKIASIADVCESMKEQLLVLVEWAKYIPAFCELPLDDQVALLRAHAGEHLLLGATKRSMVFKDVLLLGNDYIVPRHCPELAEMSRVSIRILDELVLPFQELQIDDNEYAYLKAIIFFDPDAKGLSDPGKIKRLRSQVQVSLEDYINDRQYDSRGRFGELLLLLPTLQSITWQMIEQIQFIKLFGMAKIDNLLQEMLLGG

[4] = target: the molecule itself; experiment: ITC; HNF4α LBD protein alone; dimer dissociation upon dilution (seen when inverse ITC experiments were tried); dimer to monomers
[5] = 50 µM, mean ± SD, at least four repeats

Molecule	VP16 Control (fold activation of reporter activity) (Gal4–VP16)	Kd [1]	n (ITC binding model) [1]	FBP1 mRNA expression [2]	Primary Screen (Fold Act., 50 µM) ([3]; 50 µM, mean of two biologically independent repeats, vs. 0.2% DMSO) [fold activation]	Follow-up HNF4α (fold activation of reporter activity) [3, 5]	HNF4α Ligand Type [3]	HNF4a-screening_activity_(mean_of_n=2) ([3]; Table S1, primary screening, 50 µM)	EC50 ([3]; dose-response, mean ± SD, at least four repeats, read-out: Validated HNF4α Modulation EC50) [µM]	Validated HNF4α Modulation maximum fold act. ([3]; maximum fold increase in reporter activity relative to 0.1% DMSO)	HNF4α vs. VP16 (p, t-test) [3]	IC50 ([3]; dose-response, inverse agonism, mean ± SD, read-out: Validated HNF4α Modulation IC50) [µM]	binding result [4]
Nc1ncns1 [compound 7, Nc1ncns1]	1.4 ± 0.1 (50 µM) fold activation	~7 µM and 7 µM	0.9	promoted FBP1 expression; also recorded: tendency to enhanced FBP1 mRNA levels	2.36	3.0 ± 0.3 (50 µM) fold activation	Agonist	2.362	31	3.8 fold act. and 3.8 ± 0.6 fold act.	p < 0.0001 (***)		
OC(c1ccc(F)cc1)c1ccc(F)cc1 [compound 10]	1.1 ± 0.2 (50 µM) fold activation	~1.7 µM and 1.7 µM	1.1	decreased FBP1 mRNA levels; also recorded: robustly decreased FBP1 expression		0.75 ± 0.05 (50 µM) fold activation	inverse HNF4α agonism; also recorded: Inverse agonist				p = 0.0057 (**)	24	
B1													binds
